Patent US4921797A, “C-terminal alpha-amidating enzyme and process for production and use thereof” (Hisayuki Matsuo, priority 1986, dated 1990)
Square brackets hold non-standard residues; d marks the D form. Ends that are not written are not given here.

Tests used:
Assay type in all cases: biochemical
[1] = biological target: T1, C-terminal α-amidating enzyme AE-I (Xenopus laevis, UniProt P08478); test: Effect of substances on enzyme activity of AE-I
T1 construct: C-terminal α-amidating enzymes of the present invention can be extracted from the skin of Xenopus laevis; from tissue; host or cells: Xenopus laevis skin
T1 sequence (P08478 37-400 isoform P08478-2 limits assumed): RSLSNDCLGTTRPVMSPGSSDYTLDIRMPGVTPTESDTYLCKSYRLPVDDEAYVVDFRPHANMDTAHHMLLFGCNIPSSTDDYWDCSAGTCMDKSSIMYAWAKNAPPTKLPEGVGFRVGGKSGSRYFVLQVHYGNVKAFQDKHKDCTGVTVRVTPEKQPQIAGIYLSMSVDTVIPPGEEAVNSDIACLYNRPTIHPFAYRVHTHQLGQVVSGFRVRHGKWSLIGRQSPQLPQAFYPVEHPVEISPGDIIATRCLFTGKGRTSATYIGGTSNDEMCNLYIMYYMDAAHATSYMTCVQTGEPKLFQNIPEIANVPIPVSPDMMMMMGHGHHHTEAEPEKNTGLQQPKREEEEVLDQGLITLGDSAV
Procedure: C-terminal α-amidating enzyme of the present invention is assayed using synthetic peptide [^125 I]-Ac-Tyr-Phe-Gly as a substitute according to the following procedure. [^125 I]-Ac-Tyr-Phe-Gly (1 pmole, 70,000-150,000 cpm) was incubated with an enzyme preparation, in a final volume of 250 μl containing 0.2M Tris-HCl buffer (pH 7.0), 2 μM CuSo4, 0.25 mM ascorbic acid, 25 μg catalase (Boehringer), 0.1% Lubrol (PX type, Nakarai Chemicals). The reaction mixture was kept at 37° C. for 1 to 4 hours. Then 0.75 ml of 1M Tris-HCl buffer (pH 7.0) and 2 ml of the organic phase of an ethyl acetate/water mixture was added. Two phases were mixed vigorously on a Vortex mixer. After centrifugation at 3000 rpm for 3 min, the organic phase thus separated was transferred to another test tube. The radioactivity in organic and aqueous layers was each measured by a gamma scintillation counter. […] The yield of conversion was calculated from the ratio of the radioactivity in ethyl acetate phase to the total radioactivity. In this assay, one unit is defined as an amount of enzyme which converts 50% of added substrate [^125 I]-Ac-Try-Phe-Gly to [^125 I]-Ac-Tyr-Phe-NH2.

[2] = biological target: T1, C-terminal α-amidating enzyme AE-I; test: Conversion of substrate peptides to C-terminal α-amidated products by AE-I (reverse-phase HPLC); settings: same procedure as Example 3; rates Tyr-Phe-Gly>Ac-Tyr-Phe-Gly>D-Tyr-Val-Gly>D-Tyr-Gly-Gly
Procedure: The 0.1 μg of the enzyme preparation AE-I prepared in Example 1 was incubated with 4 nmoles of Tyr-Gly-Gly-Phe-Met-Arg-Arg-Val-Gly as a substrate in 250 μl of a 0.2M Tris-HCl buffer (pH 7.0) containing 2 μM CuSO4, 0.25 mM ascorbic acid, 25 μg catalase, and 0.1% Lubrol, at 37° C. for 24 hours. After the reaction was terminated by the addition of 250 μl of 1% trifluoroacetic acid, the reaction mixture was applied to a TSK ODS-120A column (0.4×25 cm; Toyosoda), and elution was carried out using a linear gradient of 12 to 60% CH3 CN in 0.1% trifluoroacetic acid at a flow rate of 1.5 ml/min. The elute was analyzed for absorbance at 210 nm. FIG. 7A represents an elution pattern for a sample of the reaction mixture taken at 0 time, i.e., before the reaction, and FIG. 7B represents an elution pattern for a sample of the reaction mixture taken 24 hours after the reaction has started. […] In FIG. 7, arrows b and a represent positions at which the peaks of authentic substrate and authentic adrenorphin Tyr-Gly-Gly-Phe-Met-Arg-Arg-Val-NH2 respectively appear under the same condition. Adrenorphin corresponds to a peptide wherein C-terminal glycine has been converted to α-amide. Since the positions 1 and 2 match the positions a and b respectively, it is reasonable to assume that the reaction product corresponding to peak 1 is adrenorphin. This means that the enzyme of the present invention amidated the substrate at its C-terminal. To confirm this conclusion, the fraction 1 in FIG. 7 was hydrolyzed in 6M HCl at 110° C. for 24 hours, and the amino acid composition of the hydrolyzate was analyzed using an amino acid analyzer. Moreover, the presence of the C-terminal amide group in the fraction 1 was analyzed by thermolysin digestion followed by thin layer chromatography. All of the results confirmed that the reaction product is adrenorphin.
The same procedure as described in Example 3 was repeated except that, in place of Tyr-Gly-Gly-Phe-Met-Arg-Arg-Val-Gly(FIG. 8Δ), following substrates were used: […]

[3] = biological target: T1, C-terminal α-amidating enzyme AE-I; test: Kinetic constants of AE-I from Lineweaver-Burk plots; settings: standard conditions
Procedure: C-terminal α-amidating enzyme of the present invention is assayed using synthetic peptide [^125 I]-Ac-Tyr-Phe-Gly as a substitute according to the following procedure. [^125 I]-Ac-Tyr-Phe-Gly (1 pmole, 70,000-150,000 cpm) was incubated with an enzyme preparation, in a final volume of 250 μl containing 0.2M Tris-HCl buffer (pH 7.0), 2 μM CuSo4, 0.25 mM ascorbic acid, 25 μg catalase (Boehringer), 0.1% Lubrol (PX type, Nakarai Chemicals). The reaction mixture was kept at 37° C. for 1 to 4 hours. Then 0.75 ml of 1M Tris-HCl buffer (pH 7.0) and 2 ml of the organic phase of an ethyl acetate/water mixture was added. Two phases were mixed vigorously on a Vortex mixer. After centrifugation at 3000 rpm for 3 min, the organic phase thus separated was transferred to another test tube. The radioactivity in organic and aqueous layers was each measured by a gamma scintillation counter. Under the conditions described above, over 98% of radioactivity of the authentic [^125 I]-Ac-Tyr-Phe-Gly was retained in an aqueous phase and over 98% of radioactivity of the authentic [^125 I]-Ac-Tyr-Phe-NH2 was transferred to an organic phase. The yield of conversion was calculated from the ratio of the radioactivity in ethyl acetate phase to the total radioactivity. In this assay, one unit is defined as an amount of enzyme which converts 50% of added substrate [^125 I]-Ac-Try-Phe-Gly to [^125 I]-Ac-Tyr-Phe-NH2.

O[C@H](CS)[C@H](O)CS (racemic) [dithiothreitol]
Effect on enzyme activity ([1]; 1 mM dithiothreitol): inhibited

O=S(=O)([O-])[O-].[Cu+2] [CuSO4]
Effect on enzyme activity inhibited by the thiol compound ([1]; additional 1.2 mM CuSO4 in presence of 1 mM dithiothreitol): restores the enzyme activity
Effect on enzyme activity inhibited by EDTA ([1]; additional more than 0.12 mM CuSO4 in presence of 0.1 mM EDTA): restores the enzyme activity

[Cu+2] [Cu^++]
Requirement of Cu++ cation for enzyme activity [1]: essential

O=C(O)CN(CCN(CC(=O)O)CC(=O)O)CC(=O)O [EDTA]
Effect on enzyme activity ([1]; 0.1 mM EDTA): inhibited

CCN1C(=O)C=CC1=O [N-ethylmaleimide]
Effect on enzyme activity inhibited by the thiol compound ([1]; 5 mM N-ethylmaleimide in presence of 1 mM dithiothreitol): restores the enzyme activity

Ac-Tyr-Phe-Gly
Conversion of substrate by AE-I (FIG. 8) [2]: converted to the corresponding des-Gly peptide α-amides
Km [3]: 0.35 µM
Vmax [3]: 1.9 nmol/µg/h

Tyr-Gly-Gly-Phe-Met-Arg-Arg-Val [desamido-adrenorphin]
Conversion of substrate by AE-I (FIG. 8) [2]: not affected by the enzyme

Tyr-Phe-Gly
Conversion of substrate by AE-I (FIG. 8) [2]: converted to the corresponding des-Gly peptide α-amides

YGGFMRRVGRPE [BAM-12P]
Conversion of substrate by AE-I (FIG. 8) [2]: not affected by the enzyme

[dY]-Gly-Gly
Conversion of substrate by AE-I (FIG. 8) [2]: converted to the corresponding des-Gly peptide α-amides

[dY]-Val-Gly
Conversion of substrate by AE-I (FIG. 8) [2]: converted to the corresponding des-Gly peptide α-amides
